{
  "source": "paper PMC7516806",
  "about": "“Hybrid Antimicrobial Peptide Targeting Staphylococcus aureus and Displaying Anti-infective Activity in a Murine Model” (Frontiers in Microbiology, 2020)",
  "key": {"[1]": {"experiment": "Systemic toxicity after intraperitoneal injection", "assay_type": "in vivo, mice", "conditions": "100 μL", "procedure": "The mice were inoculated by intraperitoneal injection with 100 μL of S2 (80 MIC), and saline was used as the control. Signs of animal distress and changes in body weight were closely monitored. After five days, all the mice were euthanized, and the blood biochemistry parameters were determined ([Mishra et al., 2019])."}, "IL-6": {"test_system": "IL-6", "experiment": "Cytokine ELISA in infected skin", "assay_type": "in vivo, ICR mice", "conditions": "24 h after treatment, P < 0.05", "procedure": "(§1) To assess the antimicrobial activity of the peptide in vivo, a mouse model of subcutaneous infection was used ([Huang et al., 2011a]; [Omolo et al., 2017]). Female Institute for Cancer Research (ICR) mice (SPF, 20–25 g) were purchased from WeiTonglihua Co., Ltd. (Beijing, China), with eight animals per group. The mice were shaved on their backs and disinfected. S. aureus 29213 (100 μL) at a concentration of 1 × 10^8 CFU/mL was injected into the superficial skin of the mice. The mice were divided into four groups (n = 4), as follows: S. aureus + saline, S. aureus + S2 (80× MIC, 100 μL), S. aureus + vancomycin (Van) (80× MIC, 100 μL), and saline. S2, vancomycin, and saline were injected at the same site 1 h after infection. The mice were monitored over 24 h in an environmentally controlled room at 25 ± 1°C and 55 ± 5% relative humidity with a 12 h light/dark cycle.\n(§2) The mice were treated as described above. Skin samples were treated according to the manufacturer’s instructions. The levels of tumor necrosis factor-alpha (TNF-α), interleukin-6 (IL-6), and granulocyte-macrophage colony-stimulating factor (GM-CSF) in infected skin were measured using enzyme-linked immunosorbent assay (ELISA) kits following the manufacturer’s instructions."}, "GM-CSF": {"test_system": "GM-CSF", "experiment": "Cytokine ELISA in infected skin", "assay_type": "in vivo, ICR mice", "conditions": "24 h after treatment, P < 0.05", "procedure": "as §1, §2"}, "TNF-α": {"test_system": "TNF-α", "experiment": "Cytokine ELISA in infected skin", "assay_type": "in vivo, ICR mice", "conditions": "24 h after treatment, P < 0.05", "procedure": "as §1, §2"}, "S. pullorum 7913": {"test_system": "S. pullorum 7913", "experiment": "MIC, modified microtiter dilution", "assay_type": "cell-based, Salmonella pullorum", "conditions": "MHB, 2–7 × 10^5 CFU/ml, 37°C, 24 h, no turbidity, at least three independent repeats", "from_the_text": "(§3) The experiment was repeated at least three times independently."}, "[2]": {"test_system": "Staphylococcus aureus 29213", "experiment": "Propidium iodide uptake assay", "assay_type": "cell-based", "conditions": "0.5 × MIC, MIC and 2 × MIC; 10 μg/mL PI; ex 535 nm, em 617 nm", "procedure": "Staphylococcus aureus 29213 was washed three times with buffer (5 mM HEPES, 5 mM glucose, pH 7.4) after the bacterium grew to the mid-log phase and then diluted to an OD600 = 0.05. Propidium iodide was then added to the final concentration of 10 μg/mL and incubated for 30 min at 4°C. The peptides were added to 12-well plates, which were filled with 2 mL of the cell suspension. An F-4500 fluorescence spectrophotometer (Hitachi, Japan) was employed to measure the fluorescence value at an excitation wavelength of 535 nm and an emission wavelength of 617 nm. Maximal augmentation was monitored, and the fluorescence of the mixture of bacteria and dye served as the blank control ([Morita et al., 2015])."}, "RAW 264.7 cells": {"test_system": "RAW 264.7 cells", "experiment": "Cytotoxicity, MTT dye reduction assay", "assay_type": "cell-based, murine", "procedure": "The cytotoxicity of peptides was determined by healthy human erythrocytes and the murine macrophage cell line RAW 264.7 via a hemolysis assay and MTT dye reduction assay, respectively ([Wang et al., 2018]). In the hemolysis assay, fresh hRBCs from healthy people were centrifuged for 5 min at 1,000 × g and then washed three times with PBS (pH = 7.2). The 100 μL erythrocyte suspension and peptides were incubated for 1.5 h in an incubator at 37°C. The 96-well plates were centrifuged at 1,000 × g for 5 min, and the supernatants were carefully aspirated. The absorbance at 570 nm indicated the leakage of hemoglobin. The hRBCs in the PBS sample was used as the negative control, and 0.1% Triton X-100 addition served as the positive control. In the MTT dye reduction assay, 1.0–2.0 × 10^5 cells were plated in 96-well plates and then treated with various concentrations of peptides for 4 h at 37°C in a 5% CO2 incubator. Subsequently, 50 μL of MTT was added to the plated cells at a final concentration of 0.5 mg/mL and incubated for 4 h. Then, the cells were centrifuged at 1000 × g for 5 min, and the supernatants were discarded. Formazan crystals were dissolved in 150 μL of DMSO, and the OD570 nm was measured using a microplate reader (TECAN GENios F129004; TECAN, Austria). The experiment was repeated three times independently."}, "L. rhamnosus 1.0385": {"test_system": "L. rhamnosus 1.0385", "experiment": "MIC, modified microtiter dilution", "assay_type": "cell-based, Lactobacillus rhamnosus", "conditions": "2–7 × 10^5 CFU/ml, 37°C, 24 h, no turbidity, at least three independent repeats", "from_the_text": "as §3"}, "L. rhamnosus 7469": {"test_system": "L. rhamnosus 7469", "experiment": "MIC, modified microtiter dilution", "assay_type": "cell-based, Lactobacillus rhamnosus", "conditions": "2–7 × 10^5 CFU/ml, 37°C, 24 h, no turbidity, at least three independent repeats", "from_the_text": "as §3"}, "L. rhamnosus 1.0936": {"test_system": "L. rhamnosus 1.0936", "experiment": "MIC, modified microtiter dilution", "assay_type": "cell-based, Lactobacillus rhamnosus", "conditions": "2–7 × 10^5 CFU/ml, 37°C, 24 h, no turbidity, at least three independent repeats", "from_the_text": "as §3"}, "L. rhamnosus 1.0911": {"test_system": "L. rhamnosus 1.0911", "experiment": "MIC, modified microtiter dilution", "assay_type": "cell-based, Lactobacillus rhamnosus", "conditions": "2–7 × 10^5 CFU/ml, 37°C, 24 h, no turbidity, at least three independent repeats", "from_the_text": "as §3"}, "[3]": {"test_system": "lipoteichoic acid (LTA) from S. aureus", "experiment": "LTA binding, BODIPY-TR-cadaverine displacement", "set-up": "species or system Staphylococcus aureus", "conditions": "comparison among peptides, BC displacement", "procedure": "Peptides binding to LTA were assayed using the BC (Sigma, United States) displacement method ([Zorko and Jerala, 2008]). The final concentration of 50 μg/mL LTA from S. aureus was incubated with 5 μg/mL BC in Tris-HCl buffer (50 mM, pH 7.4) for 4 h in a shaking incubator at 37°C. The peptides were then serially diluted in Tris–HCl buffer, and an equal volume solution was added to the 96-well plates. The fluorescence was measured (excitation λ = 580 nm, emission λ = 620 nm) on a spectrofluorophotometer (Infinite 200 Pro, Tecan, China). The experiment was conducted three times independently."}, "E. coli 25922": {"test_system": "E. coli 25922", "experiment": "MIC, modified microtiter dilution", "assay_type": "cell-based, Escherichia coli", "conditions": "MHB, 2–7 × 10^5 CFU/ml, 37°C, 24 h, lowest concentration with no turbidity, at least three independent repeats", "from_the_text": "as §3"}, "E. coli UB1005": {"test_system": "E. coli UB1005", "experiment": "MIC, modified microtiter dilution", "assay_type": "cell-based, Escherichia coli", "conditions": "MHB, 2–7 × 10^5 CFU/ml, 37°C, 24 h, no turbidity, at least three independent repeats", "from_the_text": "as §3"}, "[4]": {"conditions": "mean, intraperitoneal 80 MIC, after five days"}},
  "note": "Positions of bridges follow the written chain, without caps; N, C: chain ends. Residues, ends and D or L forms follow the SMILES beside them.",
  "data": [
    {"compound": "CC(C)C[C@H](NC(=O)[C@H](CC(C)C)NC(=O)[C@H](Cc1c[nH]c2ccccc12)NC(=O)[C@H](Cc1c[nH]c2ccccc12)NC(=O)[C@H](Cc1c[nH]c2ccccc12)NC(=O)[C@H](CCCNC(=N)N)NC(=O)[C@@H]1CSSC[C@H](N)C(=O)N[C@@H](C)C(=O)N[C@@H](CO)C(=O)N[C@@H](Cc2ccc(O)cc2)C(=O)N[C@@H](Cc2ccccc2)C(=O)N1)C(N)=O", "note": "[Peptide S2] (H-CASYFCRWWWLL-NH2; disulfide 1-6; N-terminus assumed)", "values": [
      {"measurement": "blood parameters versus saline treatment group", "setting": "[1]; intraperitoneal, 80 MIC, after five days", "value": "unaltered"},
      {"measurement": "clinical signs of toxicity", "setting": "[1]; intraperitoneal, 80 MIC, monitored five days", "value": "no clinical signs indicative of toxicity"},
      {"measurement": "blood Cl-", "setting": "[1]; [4]", "value": 111.25, "unit": "mmol/L"},
      {"measurement": "blood Creatinine", "setting": "[1]; [4]", "value": 12.4, "unit": "µM"},
      {"measurement": "blood Glucose", "setting": "[1]; [4]", "value": 10.17, "unit": "mmol/L"},
      {"measurement": "blood I.Phos.", "setting": "[1]; [4]", "value": 2.335, "unit": "mmol/L"},
      {"measurement": "blood K+", "setting": "[1]; [4]", "value": 5.84, "unit": "mmol/L"},
      {"measurement": "blood Na+", "setting": "[1]; [4]", "value": 149, "unit": "mmol/L"},
      {"measurement": "blood Urea", "setting": "[1]; [4]", "value": 9.43, "unit": "mmol/L"},
      {"measurement": "IL-6 generation in infected skin", "setting": "IL-6", "value": "suppressed"},
      {"measurement": "GM-CSF levels in infected skin versus control group and Van group", "setting": "GM-CSF", "value": "significantly higher"},
      {"measurement": "TNF-α generation in infected skin", "setting": "TNF-α", "value": "suppressed"},
      {"measurement": "MIC S. pullorum 7913", "setting": "S. pullorum 7913", "value": ">64", "unit": "µM"},
      {"measurement": "PI uptake (PI fluorescence)", "setting": "[2]", "value": "rapidly disrupted the bacterial membrane and caused PI uptake"},
      {"measurement": "killing activity against RAW 264.7 cells", "setting": "RAW 264.7 cells", "value": "no killing activity against RAW 264.7 cells"},
      {"measurement": "RAW 264.7 cell survival rate", "setting": "RAW 264.7 cells; highest concentration of 128 μM, 4 h, three independent repeats", "value": 105, "unit": "%"},
      {"measurement": "MIC L. rhamnosus 1.0385", "setting": "L. rhamnosus 1.0385", "value": ">64", "unit": "µM"},
      {"measurement": "MIC L. rhamnosus 7469", "setting": "L. rhamnosus 7469", "value": ">64", "unit": "µM"},
      {"measurement": "MIC L. rhamnosus 1.0936", "setting": "L. rhamnosus 1.0936", "value": ">64", "unit": "µM"},
      {"measurement": "MIC L. rhamnosus 1.0911", "setting": "L. rhamnosus 1.0911", "value": ">64", "unit": "µM"},
      {"measurement": "relative binding capacity to LTA", "setting": "[3]", "value": "stronger binding capacity to LTA than S1 and S3"},
      {"measurement": "MIC E. coli 25922", "setting": "E. coli 25922", "value": ">64", "unit": "µM"},
      {"measurement": "MIC E. coli UB1005", "setting": "E. coli UB1005", "value": ">64", "unit": "µM"}
    ]}
  ]
}
